ChEMBL document CHEMBL4507292 (2021)

What was measured:
[1] = molecular target: Activin receptor type-2A (Homo sapiens) (UniProt P27037); conditions: Compound concentration 1000.0 nM
[2] = molecular target: Serine/threonine-protein kinase BRSK2 (Homo sapiens) (UniProt Q8IWQ3); conditions: Compound concentration 1000.0 nM
[3] = molecular target: Dual specificity protein kinase CLK3 (Homo sapiens) (UniProt P49761); conditions: Compound concentration 1000.0 nM
[4] = molecular target: Death-associated protein kinase 1 (Homo sapiens) (UniProt P53355); conditions: Compound concentration 1000.0 nM
Death-associated protein kinase 1 (Homo sapiens), sequence (P53355 whole entry, looked up): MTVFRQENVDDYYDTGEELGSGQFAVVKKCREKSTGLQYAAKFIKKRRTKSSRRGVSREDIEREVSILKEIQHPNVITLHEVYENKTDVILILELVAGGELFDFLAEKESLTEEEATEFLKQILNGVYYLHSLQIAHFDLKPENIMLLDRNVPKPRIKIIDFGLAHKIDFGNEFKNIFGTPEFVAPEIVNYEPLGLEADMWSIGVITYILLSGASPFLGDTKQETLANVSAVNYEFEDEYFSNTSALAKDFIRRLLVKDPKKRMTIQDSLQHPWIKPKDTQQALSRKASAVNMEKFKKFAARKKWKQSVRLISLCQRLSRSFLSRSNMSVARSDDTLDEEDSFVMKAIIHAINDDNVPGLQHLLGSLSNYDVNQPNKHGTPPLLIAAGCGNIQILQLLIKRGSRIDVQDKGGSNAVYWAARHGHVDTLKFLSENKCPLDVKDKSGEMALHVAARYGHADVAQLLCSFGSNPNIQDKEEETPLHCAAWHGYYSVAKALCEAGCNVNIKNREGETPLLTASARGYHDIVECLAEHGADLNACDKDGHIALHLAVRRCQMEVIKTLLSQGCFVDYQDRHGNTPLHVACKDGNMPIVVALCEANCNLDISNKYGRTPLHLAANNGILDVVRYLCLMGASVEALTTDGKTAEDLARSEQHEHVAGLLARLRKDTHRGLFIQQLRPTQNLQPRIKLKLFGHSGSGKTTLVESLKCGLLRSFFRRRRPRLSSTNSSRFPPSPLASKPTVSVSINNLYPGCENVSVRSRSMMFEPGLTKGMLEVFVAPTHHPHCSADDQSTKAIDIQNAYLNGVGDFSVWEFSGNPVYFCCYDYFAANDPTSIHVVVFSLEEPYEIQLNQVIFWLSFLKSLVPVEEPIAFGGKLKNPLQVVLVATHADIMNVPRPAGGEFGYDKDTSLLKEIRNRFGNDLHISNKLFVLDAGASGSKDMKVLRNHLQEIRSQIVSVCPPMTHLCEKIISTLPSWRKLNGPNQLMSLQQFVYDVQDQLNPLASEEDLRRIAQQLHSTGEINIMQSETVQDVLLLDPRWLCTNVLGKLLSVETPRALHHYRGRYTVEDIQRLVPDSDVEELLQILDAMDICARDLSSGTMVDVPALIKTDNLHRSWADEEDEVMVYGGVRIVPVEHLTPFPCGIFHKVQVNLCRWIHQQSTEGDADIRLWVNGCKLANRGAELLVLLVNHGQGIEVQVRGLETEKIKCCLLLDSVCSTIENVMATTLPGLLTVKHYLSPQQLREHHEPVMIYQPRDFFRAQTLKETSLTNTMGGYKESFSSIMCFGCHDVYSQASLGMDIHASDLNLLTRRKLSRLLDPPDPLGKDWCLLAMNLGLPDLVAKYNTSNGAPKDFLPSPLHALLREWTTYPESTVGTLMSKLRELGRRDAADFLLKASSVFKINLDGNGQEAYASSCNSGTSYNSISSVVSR

[5] = molecular target: Dual specificity tyrosine-phosphorylation-regulated kinase 1A (Homo sapiens) (UniProt Q13627); conditions: Compound concentration 1000.0 nM
[6] = tested on: Epidermal growth factor receptor (Homo sapiens), P00533 [UNDEFINED MUTATION]; conditions: Compound concentration 1000.0 nM
Epidermal growth factor receptor (Homo sapiens), P00533 [UNDEFINED MUTATION], sequence (P00533 whole entry, looked up, change not shown): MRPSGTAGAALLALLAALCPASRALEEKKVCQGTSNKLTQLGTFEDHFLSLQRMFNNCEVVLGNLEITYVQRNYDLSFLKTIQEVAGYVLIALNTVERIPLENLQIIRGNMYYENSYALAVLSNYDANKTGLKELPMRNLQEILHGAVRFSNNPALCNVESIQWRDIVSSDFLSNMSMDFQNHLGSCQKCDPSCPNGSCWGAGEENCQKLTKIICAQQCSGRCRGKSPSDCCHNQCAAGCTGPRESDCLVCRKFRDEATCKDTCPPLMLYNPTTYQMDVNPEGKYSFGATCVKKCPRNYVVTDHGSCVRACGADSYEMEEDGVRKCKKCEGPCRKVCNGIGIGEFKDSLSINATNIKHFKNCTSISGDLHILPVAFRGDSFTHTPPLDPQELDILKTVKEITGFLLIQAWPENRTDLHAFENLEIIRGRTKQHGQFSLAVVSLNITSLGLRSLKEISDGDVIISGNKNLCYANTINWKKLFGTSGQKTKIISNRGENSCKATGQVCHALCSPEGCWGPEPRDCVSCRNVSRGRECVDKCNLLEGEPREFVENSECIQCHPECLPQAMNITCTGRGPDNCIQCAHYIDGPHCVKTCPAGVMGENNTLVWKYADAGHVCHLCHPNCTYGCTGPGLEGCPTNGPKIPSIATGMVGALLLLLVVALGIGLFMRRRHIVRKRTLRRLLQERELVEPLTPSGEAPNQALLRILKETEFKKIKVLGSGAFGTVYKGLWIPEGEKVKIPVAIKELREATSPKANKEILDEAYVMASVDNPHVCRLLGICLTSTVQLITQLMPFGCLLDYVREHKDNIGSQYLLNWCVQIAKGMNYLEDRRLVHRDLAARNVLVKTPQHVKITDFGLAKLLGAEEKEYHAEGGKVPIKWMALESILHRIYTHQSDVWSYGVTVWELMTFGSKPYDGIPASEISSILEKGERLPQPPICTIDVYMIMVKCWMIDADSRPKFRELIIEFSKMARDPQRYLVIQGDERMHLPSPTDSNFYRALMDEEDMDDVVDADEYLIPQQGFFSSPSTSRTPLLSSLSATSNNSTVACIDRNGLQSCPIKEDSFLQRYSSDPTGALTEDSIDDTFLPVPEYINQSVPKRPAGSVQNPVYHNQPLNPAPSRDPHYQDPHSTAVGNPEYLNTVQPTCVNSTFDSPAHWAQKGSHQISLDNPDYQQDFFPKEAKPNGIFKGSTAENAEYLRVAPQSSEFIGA

[7] = molecular target: Tyrosine-protein kinase Fer (Homo sapiens) (UniProt P16591); conditions: Compound concentration 1000.0 nM
[8] = molecular target: Tyrosine-protein kinase FRK (Homo sapiens) (UniProt P42685); conditions: Compound concentration 1000.0 nM
[9] = molecular target: Rhodopsin kinase GRK1 (Homo sapiens) (UniProt Q15835); conditions: Compound concentration 1000.0 nM
Rhodopsin kinase GRK1 (Homo sapiens), sequence (Q15835 whole entry): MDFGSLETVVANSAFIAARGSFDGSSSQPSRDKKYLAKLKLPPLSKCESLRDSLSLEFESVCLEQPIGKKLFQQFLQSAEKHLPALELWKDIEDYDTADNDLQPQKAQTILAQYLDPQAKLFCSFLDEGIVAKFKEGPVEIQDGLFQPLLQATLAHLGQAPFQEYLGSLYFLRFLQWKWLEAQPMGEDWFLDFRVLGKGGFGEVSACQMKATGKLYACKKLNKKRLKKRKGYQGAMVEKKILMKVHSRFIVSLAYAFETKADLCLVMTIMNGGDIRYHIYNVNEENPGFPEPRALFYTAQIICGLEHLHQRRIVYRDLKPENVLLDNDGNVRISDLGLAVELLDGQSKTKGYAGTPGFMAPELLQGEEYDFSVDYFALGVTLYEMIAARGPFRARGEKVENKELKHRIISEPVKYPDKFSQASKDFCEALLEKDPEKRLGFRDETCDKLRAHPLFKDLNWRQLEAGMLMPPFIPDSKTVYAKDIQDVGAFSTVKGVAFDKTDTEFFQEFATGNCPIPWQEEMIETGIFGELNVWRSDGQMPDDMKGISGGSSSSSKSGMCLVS

[10] = tested on: Mast/stem cell growth factor receptor Kit (Homo sapiens), P10721 [L576P]; conditions: Compound concentration 1000.0 nM
[11] = tested on: Mast/stem cell growth factor receptor Kit (Homo sapiens), P10721 [V559D]; conditions: Compound concentration 1000.0 nM
[12] = molecular target: Tyrosine-protein kinase Lyn (Homo sapiens) (UniProt P07948); conditions: Compound concentration 1000.0 nM
[13] = molecular target: Misshapen-like kinase 1 (Homo sapiens) (UniProt Q8N4C8); conditions: Compound concentration 1000.0 nM
[14] = molecular target: Muscle, skeletal receptor tyrosine-protein kinase (Homo sapiens) (UniProt O15146); conditions: Compound concentration 1000.0 nM
Muscle, skeletal receptor tyrosine-protein kinase (Homo sapiens), sequence (O15146 whole entry): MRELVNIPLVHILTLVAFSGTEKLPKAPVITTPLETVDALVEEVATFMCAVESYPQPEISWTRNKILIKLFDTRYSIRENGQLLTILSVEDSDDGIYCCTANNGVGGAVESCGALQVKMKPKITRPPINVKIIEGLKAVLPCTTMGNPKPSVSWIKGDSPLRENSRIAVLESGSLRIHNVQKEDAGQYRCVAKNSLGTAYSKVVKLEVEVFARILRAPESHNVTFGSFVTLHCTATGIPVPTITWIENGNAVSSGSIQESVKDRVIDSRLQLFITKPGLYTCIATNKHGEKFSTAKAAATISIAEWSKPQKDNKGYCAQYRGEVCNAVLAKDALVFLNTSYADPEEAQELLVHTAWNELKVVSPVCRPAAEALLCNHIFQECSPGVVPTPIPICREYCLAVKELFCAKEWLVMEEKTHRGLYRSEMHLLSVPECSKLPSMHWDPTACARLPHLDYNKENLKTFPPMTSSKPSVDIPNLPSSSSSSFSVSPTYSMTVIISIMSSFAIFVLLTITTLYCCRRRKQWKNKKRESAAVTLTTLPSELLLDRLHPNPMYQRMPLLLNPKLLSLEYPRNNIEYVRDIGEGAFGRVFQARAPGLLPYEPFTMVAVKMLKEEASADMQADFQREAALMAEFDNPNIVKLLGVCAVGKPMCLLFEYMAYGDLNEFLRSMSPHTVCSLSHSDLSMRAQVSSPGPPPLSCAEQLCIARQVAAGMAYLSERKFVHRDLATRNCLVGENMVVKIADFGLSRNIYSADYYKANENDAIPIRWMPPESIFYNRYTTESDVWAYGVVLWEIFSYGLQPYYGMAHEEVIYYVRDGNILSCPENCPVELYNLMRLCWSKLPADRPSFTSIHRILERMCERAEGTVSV

[15] = molecular target: Serine/threonine-protein kinase Nek1 (Homo sapiens) (UniProt Q96PY6); conditions: Compound concentration 1000.0 nM
[16] = molecular target: 3-phosphoinositide-dependent protein kinase 1 (Homo sapiens) (UniProt O15530); conditions: Compound concentration 1000.0 nM
[17] = tested on: Phosphatidylinositol 4,5-bisphosphate 3-kinase catalytic subunit alpha isoform (Homo sapiens), P42336 [M1043I]; conditions: Compound concentration 1000.0 nM
[18] = molecular target: cAMP-dependent protein kinase catalytic subunit alpha (Homo sapiens) (UniProt P17612); conditions: Compound concentration 1000.0 nM
[19] = molecular target: Protein kinase C theta type (Homo sapiens) (UniProt Q04759); conditions: Compound concentration 1000.0 nM
[20] = tested on: Proto-oncogene tyrosine-protein kinase receptor Ret (Homo sapiens), P07949 [V804M]; conditions: Compound concentration 1000.0 nM
[21] = molecular target: Ribosomal protein S6 kinase beta-1 (Homo sapiens) (UniProt P23443); conditions: Compound concentration 1000.0 nM
[22] = molecular target: Mitogen-activated protein kinase kinase kinase 7 (Homo sapiens) (UniProt O43318); conditions: Compound concentration 1000.0 nM
Mitogen-activated protein kinase kinase kinase 7 (Homo sapiens), sequence (O43318 whole entry): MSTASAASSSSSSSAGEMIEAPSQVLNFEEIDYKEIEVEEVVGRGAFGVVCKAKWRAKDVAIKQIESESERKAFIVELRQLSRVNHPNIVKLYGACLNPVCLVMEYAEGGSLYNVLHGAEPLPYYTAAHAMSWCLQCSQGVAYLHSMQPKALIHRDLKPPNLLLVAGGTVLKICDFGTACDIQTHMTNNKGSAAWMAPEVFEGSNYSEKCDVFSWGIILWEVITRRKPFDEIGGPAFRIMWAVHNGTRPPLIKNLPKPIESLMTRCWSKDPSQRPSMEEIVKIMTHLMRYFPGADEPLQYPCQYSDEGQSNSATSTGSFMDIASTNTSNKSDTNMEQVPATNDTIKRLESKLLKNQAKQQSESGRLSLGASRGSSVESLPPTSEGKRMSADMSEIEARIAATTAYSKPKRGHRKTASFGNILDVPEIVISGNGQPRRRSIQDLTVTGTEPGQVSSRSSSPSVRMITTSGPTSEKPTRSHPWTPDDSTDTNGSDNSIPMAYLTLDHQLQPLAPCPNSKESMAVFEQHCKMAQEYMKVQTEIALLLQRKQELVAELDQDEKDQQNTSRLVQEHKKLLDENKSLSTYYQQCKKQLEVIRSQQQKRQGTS

[23] = molecular target: Dual specificity protein kinase TTK (Homo sapiens) (UniProt P33981); conditions: Compound concentration 1000.0 nM
[24] = molecular target: T1, 5-hydroxytryptamine receptor 3A (Homo sapiens) (UniProt P46098); conditions: Compound concentration 10.0 uM
T1 sequence (whole entry): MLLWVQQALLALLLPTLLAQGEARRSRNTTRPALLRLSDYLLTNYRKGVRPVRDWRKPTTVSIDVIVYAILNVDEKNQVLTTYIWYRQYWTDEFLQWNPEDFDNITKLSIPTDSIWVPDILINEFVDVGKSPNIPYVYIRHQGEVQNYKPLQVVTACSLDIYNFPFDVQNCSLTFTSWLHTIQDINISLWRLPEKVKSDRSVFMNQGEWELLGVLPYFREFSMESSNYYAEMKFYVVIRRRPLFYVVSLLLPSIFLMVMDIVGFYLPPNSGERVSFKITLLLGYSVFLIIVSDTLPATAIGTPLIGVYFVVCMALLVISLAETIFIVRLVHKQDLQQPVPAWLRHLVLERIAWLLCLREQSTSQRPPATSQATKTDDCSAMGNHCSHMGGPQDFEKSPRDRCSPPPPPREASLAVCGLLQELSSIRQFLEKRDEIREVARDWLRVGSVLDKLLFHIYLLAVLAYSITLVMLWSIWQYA

[25] = molecular target: T2, D(4) dopamine receptor (Homo sapiens) (UniProt P21917); conditions: Compound concentration 10.0 uM
T2 sequence (whole entry): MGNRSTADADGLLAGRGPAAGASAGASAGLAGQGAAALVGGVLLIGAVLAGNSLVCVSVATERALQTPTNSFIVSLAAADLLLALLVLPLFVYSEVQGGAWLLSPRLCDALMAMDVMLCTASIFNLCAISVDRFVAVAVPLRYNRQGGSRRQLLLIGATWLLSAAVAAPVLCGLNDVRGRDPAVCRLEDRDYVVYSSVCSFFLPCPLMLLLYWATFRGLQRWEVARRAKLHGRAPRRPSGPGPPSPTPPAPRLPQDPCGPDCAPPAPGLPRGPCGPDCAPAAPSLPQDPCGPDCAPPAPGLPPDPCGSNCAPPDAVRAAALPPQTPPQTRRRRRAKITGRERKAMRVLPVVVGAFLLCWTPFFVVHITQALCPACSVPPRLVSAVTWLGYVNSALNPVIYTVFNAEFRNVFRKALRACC

[26] = molecular target: T3, Muscarinic acetylcholine receptor M5 (Homo sapiens) (UniProt P08912); conditions: Compound concentration 10.0 uM
T3 sequence (whole entry): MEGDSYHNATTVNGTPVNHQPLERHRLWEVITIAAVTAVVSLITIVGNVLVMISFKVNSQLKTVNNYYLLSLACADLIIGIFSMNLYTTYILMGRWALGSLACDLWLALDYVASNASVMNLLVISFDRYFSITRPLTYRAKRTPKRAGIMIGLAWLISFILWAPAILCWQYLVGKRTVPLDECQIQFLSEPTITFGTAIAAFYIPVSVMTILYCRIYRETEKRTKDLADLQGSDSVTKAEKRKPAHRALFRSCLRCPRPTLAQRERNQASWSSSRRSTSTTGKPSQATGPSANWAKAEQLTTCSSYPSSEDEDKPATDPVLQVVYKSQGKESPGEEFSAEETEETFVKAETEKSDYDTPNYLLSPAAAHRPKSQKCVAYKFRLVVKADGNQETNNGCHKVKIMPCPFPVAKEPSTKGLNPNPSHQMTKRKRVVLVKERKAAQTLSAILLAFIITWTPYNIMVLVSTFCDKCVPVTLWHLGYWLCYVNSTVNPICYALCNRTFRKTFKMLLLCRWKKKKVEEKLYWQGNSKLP

Cc1c(C(=O)O)cc(-c2ccc(C3CCNCC3)cc2)c2ccc(-c3ccc(C(F)(F)F)cc3)cc12 [PPTN-NC]
inactive: residual activity [1] 87% | residual activity [2] 100% | residual activity [3] 100% | residual activity [4] 100% | residual activity [5] 100% | residual activity [6] 100% | residual activity [7] 100% | residual activity [8] 100% | residual activity [9] 100% | residual activity [10] 100% | residual activity [11] 100% | residual activity [12] 90% | residual activity [13] 100% | residual activity [14] 100% | residual activity [15] 100% | residual activity [16] 100% | residual activity [17] 100% | residual activity [18] 100% | residual activity [19] 100% | residual activity [20] 98% | residual activity [21] 100% | residual activity [22] 100% | residual activity [23] 100% | inhibition [24] 4.62% | inhibition [25] 8.42% | inhibition [26] 10.1%

O=C(O)c1cc(-c2ccc(C3CCNCC3)cc2)c2ccc(-c3ccc(C(F)(F)F)cc3)cc2c1 [PPTN]
inactive: residual activity [1] 100% | residual activity [2] 100% | residual activity [3] 100% | residual activity [4] 100% | residual activity [5] 100% | residual activity [6] 100% | residual activity [7] 100% | residual activity [8] 100% | residual activity [9] 100% | residual activity [10] 100% | residual activity [11] 100% | residual activity [12] 100% | residual activity [13] 98% | residual activity [14] 90% | residual activity [15] 100% | residual activity [16] 100% | residual activity [17] 100% | residual activity [18] 100% | residual activity [19] 100% | residual activity [20] 100% | residual activity [21] 100% | residual activity [22] 100% | residual activity [23] 100% | inhibition [24] 4.14% | inhibition [25] 10.4% | inhibition [26] 10.1%
